In patent US20250101057A1, “SOLID FORMS” (Gilead Sciences, Inc., priority 2023, published 2025):

Test: Dynamic Vapor Sorption (DVS) hygroscopicity
Type: physicochemical
Conditions: for DVS (%): Table 6 summary of crystalline Forms I-V; for hygroscopicity by DVS analysis (in words): 0 to 90% RH at 25° C.; for DVS weight change: from 0 to 90% RH at 25° C.
Experimental: Dynamic Vapor Sorption (DVS) was used to study hygroscopicity on Model Q5000 SA (TA Instruments, New Castle, DE). A sample (1-10 mg) was placed in an aluminum pan and loaded on the sample side of the twin pan balance. The water sorption and desorption were studied as a function of relative humidity (RH) at 25° C. in 10% RH increments from 0% RH to 90% RH and then back to 0%. […] Data analysis was performed using Universal Analysis 2000 Version 4.7A (TA Instruments, New Castle, DE).

[1] = listed as Compound 1, crystalline Form II
[2] = listed as Compound 1, crystalline Form III
[3] = listed as Compound 1, crystalline Form IV
[4] = listed as Compound 1, crystalline Form V

In the case of C#C[C@]1(COC(=O)Cc2ccccc2)O[C@@H](n2cnc3c(N)nc(F)nc32)C[C@@H]1OC(=O)Cc1ccccc1 [Form I, (2R,3S,5R)-5-(6-amino-2-fluoro-9H-purin-9-yl)-2-ethynyl-2-((2-phenylacetoxy)methyl)tetrahydrofuran-3-yl 2-phenylacetate], the “DVS (%)” value (listed as I) is reported as 0.85%.

With C#C[C@]1(COC(=O)Cc2ccccc2)O[C@@H](n2cnc3c(N)nc(F)nc32)C[C@@H]1OC(=O)Cc1ccccc1 [Form II, (2R,3S,5R)-5-(6-amino-2-fluoro-9H-purin-9-yl)-2-ethynyl-2-((2-phenylacetoxy)methyl)tetrahydrofuran-3-yl 2-phenylacetate] the “hygroscopicity by DVS analysis (in words)” value (“hygroscopicity” below) [1] was “non-hygroscopic”, the “DVS (%)” value (listed as II) was 0.08% and the DVS weight change [1] was “around 0.1%”.

For C#C[C@]1(COC(=O)Cc2ccccc2)O[C@@H](n2cnc3c(N)nc(F)nc32)C[C@@H]1OC(=O)Cc1ccccc1 [Form III, (2R,3S,5R)-5-(6-amino-2-fluoro-9H-purin-9-yl)-2-ethynyl-2-((2-phenylacetoxy)methyl)tetrahydrofuran-3-yl 2-phenylacetate], the “hygroscopicity” value [2] was “slightly hygroscopic”, the “DVS (%)” value (listed as III) was 1.2% and the DVS weight change [2] was ~1.2%.

For C#C[C@]1(COC(=O)Cc2ccccc2)O[C@@H](n2cnc3c(N)nc(F)nc32)C[C@@H]1OC(=O)Cc1ccccc1 [Form IV, (2R,3S,5R)-5-(6-amino-2-fluoro-9H-purin-9-yl)-2-ethynyl-2-((2-phenylacetoxy)methyl)tetrahydrofuran-3-yl 2-phenylacetate], the “hygroscopicity” value [3] was “non-hygroscopic”, the “DVS (%)” value (listed as IV) was 0.16% and the DVS weight change [3] was ~0.16%.

With C#C[C@]1(COC(=O)Cc2ccccc2)O[C@@H](n2cnc3c(N)nc(F)nc32)C[C@@H]1OC(=O)Cc1ccccc1 [Form V, (2R,3S,5R)-5-(6-amino-2-fluoro-9H-purin-9-yl)-2-ethynyl-2-((2-phenylacetoxy)methyl)tetrahydrofuran-3-yl 2-phenylacetate] the “hygroscopicity” value [4] was “non-hygroscopic”, the “DVS (%)” value (listed as V) was 0.10% and the DVS weight change [4] was ~0.1%.
